Values quoted from earlier work as cited in patent publication US11701318B2, “Process of dyeing keratinous material comprising the use of an organosilicon compound, an effect pigment, and a film-forming polymer I” (Henkel AG & Co. KGaA, priority 2019, dated 2023).

Details: 25° C.

Compound | solubility in water | solubility in water (in words)
CCN(Cc1cccc(S(=O)(=O)[O-])c1)c1ccc(C(=C2C=CC(=[N+](CC)Cc3cccc(S(=O)(=O)[O-])c3)C=C2)c2ccccc2S(=O)(=O)[O-])cc1.[Na+].[Na+] [Acid Blue 9] | more than 20 % by weight | 
O=S(=O)([O-])c1ccc(N=Nc2c(O)ccc3ccccc23)cc1.[Na+] [Acid Orange 7, sodium salt of 4-[(2-hydroxy-1-naphthyl)azo]benzene sulphonate] | more than 7 g/L | 
Nc1cc(S(=O)(=O)[O-])cc2cc(S(=O)(=O)[O-])c(N=Nc3ccccc3)c(O)c12.[Na+].[Na+] [Acid Red 33, disodium salt of 5-amino-4-hydroxy-3-(phenylazo)-naphthalene-2,7-disulphonate] | 2.5 mg/mL | 
O=C([O-])c1c(Cl)c(Cl)c(Cl)c(Cl)c1-c1c2c(Br)cc(=O)c(Br)c-2oc2c(Br)c(O)cc(Br)c12.O=C([O-])c1c(Cl)c(Cl)c(Cl)c(Cl)c1-c1c2c(Br)cc(=O)c(Br)c-2oc2c(Br)c(O)cc(Br)c12.[Na+].[Na+] [Acid Red 92, disodium salt of 3,4,5,6-tetrachloro-2-(1,4,5,8-tetrabromo-6-hydroxy-3-oxoxanthen-9-yl)benzoic acid] | greater than 10 g/L | 
O=C([O-])C1=NN(c2ccc(S(=O)(=O)[O-])cc2)C(=O)C1N=Nc1ccc(S(=O)(=O)[O-])cc1.[Na+].[Na+].[Na+] (stereo not drawn) [Acid Yellow 23, trisodium salt of 4,5-dihydro-5-oxo-1-(4-sulfophenyl)-4-((4-sulfophenyl)azo)-1H-pyrazole-3-carboxylic acid] |  | highly soluble in water
mixture of the sodium salts of mono- and disulfonic acids of 2-(2-quinolyl)-1H-indene-1,3(2H)-dione [Acid Yellow 3] | 20 mg/mL | 
